Patent US7208153B2, “Method for the improvement of neuronal regeneration” (Neuraxo Biopharmaceuticals GmbH, priority 1997, dated 2007)
“Also recorded” adds a separate entry of the source.

Key:
[1] = tested on: Na+-dependent action potentials of fornix fibers; parameters: species or system rats
[2] = tested on: transected postcommissural fornix axons; test: Regeneration of transected postcommissural fornix axons across the lesion site (NF immunohistochemistry, anterograde tracing, electron microscopy); type: in vivo, Wistar rats
[3] = tested on: basal membrane formation (collagen IV) in the lesion site; test: Lesion-induced basal membrane (collagen IV) deposition after postcommissural fornix transection, immunohistochemistry; type: in vivo, Wistar rats
Procedure: In an effort to modulate postlesion BM deposition, either polyclonal antibodies against collagen IV (anti-Coll IV; n=14) or the iron chelator a, a′-dipyridyl (DPY; n=9) were injected locally into the lesion center immediately after transection. […] (13) and enhanced procollagen degradation (14). Control animals received a PBS injection (n=9) or were sham operated (n=3). Basal membrane formation was studied in response to antibody and drug treatment using immunohistochemical methods. […] At 2 weeks after lesion+injection only a very small number of Coll-immunreactive structures perpendicular to the tract course had developed (FIG. 1e, f).
Surgery. The left postcommissural fornix of 42 Wistar rats (180–210 g) was transected stereotactically at a distance of about 1 mm proximal to the target, the mammillary body, using a Scouten wire knife as described previously (9). The completeness of transection was confirmed by serial reconstruction of the lesion site for each of the animals. Immediately after transection animals received a topical application (1.6 μl) of either polyclonal antibodies against collagen, IV (anti-Coll IV, Biogenex, 50–100 μg/ml, n=14) or the iron chelator a, a′-dipyridyl (DPY, 1–10 mM, n=9). Substances were pressure injected (injection time 10 min) directly into the lesion site via a micropipette coupled to a microsyringe. Controls received equal amounts of phosphate-buffered saline (n=9) or sham operation (n=3).
Immunohistochemical staining. After a survival time of 4 days (d), 6 d, 2 weeks (w), 4 w and 6 w after surgery brains were removed, frozen in isopentan (−50/−60° C.) and cut into serial sagittal 10 μm thick sections. […]

Row | Structure (SMILES) | stimulus-evoked extracellular response [1] | regeneration of transected fornix fibers across the lesion site (NF-immunohistochemistry) ([2]; 6 weeks postsurgery, FIG. 2) | elongation of fornix axons into and across the lesion center ([2]; between 2 and 4 weeks after lesion+injection, immunocytochemical staining) | lesion-induced BM deposition ([3]; local injection) | Coll-immunopositive laminae and blood vessels in the lesion center and the fornix stumps ([3]; single local injection immediately after transection, anti-Coll IV 80–160 ng or DPY 1.6–16 μmol, all examined survival time points) | Collagen IV deposition in the lesion site ([3]; two weeks postsurgery, FIG. 1e, f)
1 | NC1=N[C@H](O)[C@H]2[C@H]3O[C@]4(O)O[C@@H]([C@@H](O)[C@@]2(N1)[C@@H]4O)[C@]3(O)CO [Tetrodotoxin] | blocks the stimulus-evoked response; also recorded: blocked | – | – | – | – | –
2 | c1ccc(-c2ccccn2)nc1 [DPY, a, a′-dipyridyl] | – | fibers traverse the former lesion site | large numbers of axons entered and traversed the lesion center | significantly reduced | massive and specific reduction | markedly reduced
